Results on two compounds are retold here after patent US20260325469A1, “COMPOSITION FOR ANIMALS” (priority 2023, published 2026).

Data set [1] is described as follows: Example 1.3: feeding experiments, TLA composition via drinking water, feed free from medical zinc, weight gain and diarrhoea. The data set is classed as in vivo, piglets (day-one weaned). To be noted: comparison of AWG ratio with Example 1.2, light diarrhoea environment. Here is the method: In Example 1.3, a composition comprising [COMPOUND LEFT OUT] lactic acid, [COMPOUND LEFT OUT] acetic acid and tannic acid was administered to piglets in combination with a feed free from medical zinc.
A batch solution was prepared using [COMPOUND LEFT OUT] lactic acid (80% lactic acid, Frederiksen, DK); acetic acid (5%, Organic Vinegar, Netto, DK) and tannic acid (Sigma) corresponding to a content of 10% Tannic acid, 69% lactic acid and 1.4% acetic acid. This composition is hereafter named TLA stock (tannic acid, lactic acid and acetic acid stock).
Two independent one-week feeding experiments were carried out with day-one weaned piglets (Example 1.3.1 and 1.3.2).
The concentrated TLA stock feed additive was prepared and used to mix with the standard setup for drinking water used by the weaned pigs at the farm. The dry feed is as described above.
The feed received by both the test and control groups was free from medical zinc. In each experiment, two test groups were administered the TLA composition in drinking water while two control groups received standard tap water. The total weight of all piglets in each group was measured at the initiation of the experiment (Day 0, “Start total weight”) and after one (Day 7) and two weeks (Day 14) as indicated (“End total weight”). […]
Following one-week administration, the total weight gain of each group was monitored. […]

In data set [2] the test system is E. coli cells producing F4 fimbriae. The data set is described as follows: Example 4.1: E. coli agglutination test. Format: cell-based. The settings on record: concentrations identical to Example 3.1; OD450 1.5 cells, 5 μL + 5 μL on glass plate. On the procedure:
The effect of three different compositions on E. coli agglutination were tested: (i) lactic acid and acetic acid, (ii) tannic acid, (iii) lactic acid, acetic acid and tannic acid.
A recombinant E. coli strain constitutively expressing F4 fimbriae was washed three times with 0.9% sodium chloride, and cells corresponding to an optical density (OD450) of 1.5 were resuspended in 50 μL of 0.9% sodium chloride.
5 μL of the cell suspension was mixed with 5 μL of either (i) lactic acid and acetic acid, (ii) tannic acid or (iii) lactic acid, acetic acid and tannic acid on the surface of a glass plate.
The concentration of each of these components were identical to those delivered to the pigs in Example 3.1.

The nature of data set [3]: Solubility in concentrated stock solution. Format: physicochemical. The settings on record: concentrated stock solution / acidic solutions. From the text:
A concentrated stock solution is required to facilitate administration through drinking water.

Consider `O=C(OC[C@H]1O[C@@H](OC(=O)c2cc(O)c(O)c(OC(=O)c3cc(O)c(O)c(O)c3)c2)[C@H](OC(=O)c2cc(O)c(O)c(OC(=O)c3cc(O)c(O)c(O)c3)c2)[C@@H](OC(=O)c2cc(O)c(O)c(OC(=O)c3cc(O)c(O)c(O)c3)c2)[C@@H]1OC(=O)c1cc(O)c(O)c(OC(=O)c2cc(O)c(O)c(O)c2)c1)c1cc(O)c(O)c(OC(=O)c2cc(O)c(O)c(O)c2)c1` [tannic acid, 1,2,3,4,6-penta-O-{3,4-dihydroxy-5-[(3,4,5-trihydroxybenzoyl)oxy]benzoyl}-D-glucopyranose], for which the “Contribution of tannic acid to weight increase” value in data set [1] was “additional effect of tannic acid in the increase in weight”. In addition, the E. coli agglutination result in data set [2] was “does not show any significant aggregation of the cells”. Besides, the Solubility entry in data set [3] is on record as “high solubility in acidic solutions”.
On to albumin-tannate [reference compound], for which, in data set [3], the Solubility result is given as “problems with solubility, resulting in non-homogeneous solutions comprising a precipitate”.
